{"source": "patent US11498923B2", "about": "(Merck Sharp & Dohme Corp., priority 2017, dated 2022)", "data": [{"molecular_target": "T1, human A2a receptor (Homo sapiens, UniProt P29274)", "T1 construct": "purchased Perkin-Elmer RBHA2AM400UA; host or cells: HEK293 cells, used as a membrane preparation", "T1 sequence (P29274 whole entry)": "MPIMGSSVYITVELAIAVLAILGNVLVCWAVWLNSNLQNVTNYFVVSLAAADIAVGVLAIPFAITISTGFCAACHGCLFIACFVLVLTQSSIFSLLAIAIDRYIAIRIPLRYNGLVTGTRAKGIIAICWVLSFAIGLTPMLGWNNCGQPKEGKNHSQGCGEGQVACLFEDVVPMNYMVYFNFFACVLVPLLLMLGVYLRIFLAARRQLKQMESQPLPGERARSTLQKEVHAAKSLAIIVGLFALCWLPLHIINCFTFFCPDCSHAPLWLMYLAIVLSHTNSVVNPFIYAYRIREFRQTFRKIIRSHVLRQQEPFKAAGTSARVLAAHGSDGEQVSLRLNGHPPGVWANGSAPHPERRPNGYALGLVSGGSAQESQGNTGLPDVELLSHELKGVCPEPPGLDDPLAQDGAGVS", "assay": "A2a receptor competition binding assay (Scintillation Proximity)", "conditions": "membranes from HEK293 cells expressing human A2a receptor; 0.5 nM tritiated ligand; Cheng-Prusoff; read-out: A2a Ki", "outline": "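Ki values were obtained with the Cheng-Prusoff equation from competition curves against 0.5 nM tritiated antagonist, scintillation proximity counting after 1 h room-temperature incubation. Receptor came from HEK293 membranes pretreated with adenosine deaminase; compound final range 3000–0.15 nM, buffer Ca/Mg-free PBS with 10 mM MgCl2.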", "units": {"Ki": "µM"}, "values": [{"smiles": "Nc1nc2c(F)cccc2c2nc(C(=O)NCc3ccccc3OC3CCN(c4ccccn4)CC3)cn12", "note": "[Ex-263, 5-amino-7-fluoro-N-(2-((1 (pyridin-2-yl)piperidin-4-yl)oxy)benzyl)imidazo[1,2-c]quinazoline-2-carboxamide]", "Ki": 0.0029}, {"smiles": "Nc1nc2c(F)cccc2c2nc(Cc3cc(F)ccc3-c3ccnc(N4CCOCC4)c3)cn12", "note": "[Ex-83]", "Ki": 0.0069}, {"smiles": "Nc1nc2c(F)cccc2c2nc(Cc3ccccc3CN3CCOCC3)cn12", "note": "[Ex-35, 7-fluoro-2-(2-(morpholinomethyl)benzyl)imidazo[1,2-c]quinazolin-5-amine]", "Ki": 0.006}, {"smiles": "Cc1noc(C)c1-c1cccc2c1nc(N)n1cc(Cc3ccc(F)cc3)nc21", "note": "[Ex-154, 7-(3,5-dimethylisoxazol-4-yl)-2-(4-fluorobenzyl)imidazo[1,2-c]quinazolin-5-amine]", "Ki": 0.048}, {"smiles": "COc1ccc2c(c1)nc(N)n1cc(Cc3ccccc3)nc21", "note": "[Ex-03, 2-benzyl-8-methoxyimidazo[1,2-c]quinazolin-5-amine]", "Ki": 0.0026}, {"smiles": "CCN(CC)C(=O)C1CCCN(C(=O)c2cn3c(N)nc4c(OC)cccc4c3n2)C1", "note": "(stereo not drawn) [Ex-194, 1-(5-amino-7-methoxyimidazo[1,2-c]quinazoline-2-carbonyl)-N,N-diethylpiperidine-3-carboxamide]", "Ki": 0.021}, {"smiles": "COc1cccc2c1nc(N)n1cc(C(=O)N3CCO[C@H](C)C3)nc21", "note": "[Ex-181, (R)-(5-amino-7-methoxyimidazo[1,2-c]quinazolin-2-yl)(2-methylmorpholino) methanone]", "Ki": 0.11}, {"smiles": "Nc1nc2ccc(F)cc2c2nc(Cc3ccccc3)cn12", "note": "[Ex-08, 2-benzyl-9-fluoroimidazo[1,2-c]quinazolin-5-amine]", "Ki": 0.0036}, {"smiles": "Nc1nc2ccccc2c2nc(-c3cccc(Br)c3)cn12", "note": "[Ex-105, 2-(3-bromophenyl)imidazo[1,2-c]quinazolin-5-amine]", "Ki": 0.16}, {"smiles": "COc1cccc2c1nc(N)n1cc(Cc3cccc4cccnc34)nc21", "note": "[Ex-16, 7-methoxy-2-(quinolin-8-ylmethyl)imidazo[1,2-c]quinazolin-5-amine]", "Ki": 0.0003}, {"smiles": "COc1cccc2c1nc(N)n1cc(C(=O)N3CCOC[C@@H]3C)nc21", "note": "[Ex-184, (S)-(5-amino-7-methoxyimidazo[1,2-c]quinazolin-2-yl)(3-methylmorpholino) methanone]", "Ki": 0.09}, {"smiles": "Nc1nc2c(F)cccc2c2nc(CC3CCN(C(=O)c4cccc(Br)n4)CC3)cn12", "note": "[Ex-322, (4-((5-amino-7-fluoroimidazo[1,2-c]quinazolin-2-yl)-methyl)piperidin-1-yl)(6-bromopyridin-2-yl)methanone]", "Ki": 0.026}, {"smiles": "Nc1nc2c(F)cccc2c2nc(Cc3ccccc3-c3ccccc3)cn12", "note": "[Ex-27, 2-([1,1′-biphenyl]-2-ylmethyl)-7-fluoroimidazo[1,2-c]quinazolin-5-amine]", "Ki": 0.0026}, {"smiles": "CC(=O)N1CCN(c2ccccc2CNC(=O)c2cn3c(N)nc4c(F)cccc4c3n2)CC1", "note": "[Ex-264, N-(2-(4-acetylpiperazin-1-yl)benzyl)-5-amino-7-fluoroimidazo[1,2-c]quinazoline-2-carboxamide]", "Ki": 0.0025}, {"smiles": "CS(=O)(=O)Nc1nc2c(F)cccc2c2nc(-c3ccccc3CN3CCN(c4ccccn4)CC3)cn12", "note": "[Ex-108, N-(7-fluoro-2-(2-((4-(pyridin-2-yl)piperazin-1-yl)methyl)-phenyl)-imidazo[1,2-c]-quinazolin-5-yl)-methanesulfonamide]", "Ki": 0.13}, {"smiles": "COc1cccc2c1nc(N)n1cc(C(=O)N3CCC(=O)C(C(C)C)C3)nc21", "note": "(stereo not drawn) [Ex-199, 1-(5-amino-7-methoxyimidazo[1,2-c]quinazoline-2-carbonyl)-3-isopropylpiperidin-4-one]", "Ki": 0.26}, {"smiles": "Nc1nc2c(F)cccc2c2nc(C(=O)N3CCC4(CCCNC4)CC3)cn12", "note": "[Ex-270, (5-amino-7-fluoroimidazo[1,2-c]quinazolin-2-yl)(2,9-diazaspiro[5.5]undecan-9-yl)methanone]", "Ki": 0.1}, {"smiles": "Nc1nc2c(F)cccc2c2nc(Cc3cccc(Cc4ccccc4)c3)cn12", "note": "[Ex-34, 2-(3-benzylbenzyl)-7-fluoroimidazo[1,2-c]quinazolin-5-amine]", "Ki": 0.021}, {"smiles": "Nc1nc2c(F)cccc2c2nc(C(=O)N3CCc4ccc(CC(=O)Nc5ccccn5)cc4C3)cn12", "note": "[Ex-290, 2-(2-(5-amino-7-fluoroimidazo[1,2-c]quinazoline-2-carbonyl)-1,2,3,4-tetrahydroisoquinolin-7-yl)-N-(pyridin-2-yl)acetamide]", "Ki": 0.046}, {"smiles": "Nc1nc2c(F)cccc2c2nc(CN3CCOc4ccccc43)cn12", "note": "[Ex-117, 2-((2,3-dihydro-4H-benzo[b][1,4]oxazin-4-yl)methyl)-7-fluoroimidazo[1,2-c]quinazolin-5-amine]", "Ki": 0.004}, {"smiles": "CC(C)(C)OC(=O)N1CCC2(CCN(C(=O)c3cn4c(N)nc5c(F)cccc5c4n3)C2)C1", "note": "(stereo not drawn) [Ex-259, tert-butyl 7-(5-amino-7-fluoroimidazo[1,2-c]quinazoline-2-carbonyl)-2,7-diazaspiro[4.4]nonane-2-carboxylate]", "Ki": 0.029}, {"smiles": "COc1ccccc1CN1CCC(Cc2cn3c(N)nc4c(F)cccc4c3n2)CC1", "note": "[Ex-311, 7-fluoro-2-((1-(2-methoxybenzyl)-piperidin-4-yl)-methyl)imidazo-[1,2-c]quinazolin-5-amine]", "Ki": 0.094}, {"smiles": "COc1cccc2c1nc(N)n1cc(C(=O)N3CC[C@@H](OC)C3)nc21", "note": "[Ex-213, (R)-(5-amino-7-methoxyimidazo[1,2-c]quinazolin-2-yl)(3-methoxypyrrolidin-1-yl)methanone]", "Ki": 0.01}, {"smiles": "Nc1nc2c(F)cccc2c2nc(Cc3ccnc(N4CCN(c5nc6ccccc6o5)CC4)c3)cn12", "note": "[Ex-63, 2-((2-(4-(benzo[d]oxazol-2-yl)piperazin-1-yl)pyridin-4-yl)methyl)-7-fluoroimidazo[1,2-c]quinazolin-5-amine]", "Ki": 0.102}, {"smiles": "Nc1nc2c(F)cccc2c2nc(Cc3ccc(-c4nnc(CN5CCOCC5)o4)cc3)cn12", "note": "[Ex-91, 7-fluoro-2-(4-(5-(morpholinomethyl)-1,3,4-oxadiazol-2-yl)benzyl)imidazo[1,2-c]quinazolin-5-amine]", "Ki": 0.065}, {"smiles": "COc1cccc2c1nc(N)n1cc(C(=O)N3CCC[C@H]3C(F)(F)F)nc21", "note": "[Ex-211, (S)-(5-amino-7-methoxyimidazo[1,2-c]quinazolin-2-yl)(2-(trifluoromethyl)pyrrolidin-1-yl)methanone]", "Ki": 0.014}, {"smiles": "COc1cccc2c1nc(N)n1cc(Cc3cccnc3N3CCCCC3)nc21", "note": "[Ex-50, 7-methoxy-2-((2-(piperidin-1-yl)pyridin-3-yl)methyl)imidazo[1,2-c]quinazolin-5-amine]", "Ki": 0.0037}, {"smiles": "COc1cccc(C(=O)N2CCC(Cc3cn4c(N)nc5c(F)cccc5c4n3)CC2)n1", "note": "[Ex-325, (4-((5-amino-7-fluoroimidazo[1,2-c]-quinazolin-2-yl)-methyl)piperidin-1-yl)(6-methoxypyridin-2-yl)methanone]", "Ki": 0.054}, {"smiles": "Nc1nc2c(F)cccc2c2nc(Cc3cccc(-c4cccnc4)c3)cn12", "note": "[Ex-74, 7-fluoro-2-(3-(pyridin-3-yl)benzyl)imidazo[1,2-c]quinazolin-5-amine]", "Ki": 0.0045}, {"smiles": "Nc1nc2c(F)cccc2c2nc(-c3ccccc3)cn12", "note": "[Ex-106, 7-fluoro-2-phenylimidazo[1,2-c]quinazolin-5-amine]", "Ki": 0.0071}, {"smiles": "COc1cccc2c1nc(N)n1cc(C(=O)N3CCC4CCCCC4C3)nc21", "note": "(stereo not drawn) [Ex-192, (5-amino-7-methoxyimidazo[1,2-c]quinazolin-2-yl)(octahydroisoquinolin-2(1H)-yl)methanone]", "Ki": 0.011}, {"smiles": "Nc1nc2c(F)cccc2c2nc(C(=O)NCC(c3cccnc3)N3CCOCC3)cn12", "note": "(stereo not drawn) [Ex-166, 5-amino-7-fluoro-N-(2-morpholino-2-(pyridin-3-yl)ethyl)imidazo[1,2-c]quinazoline-2-carboxamide]", "Ki": 1.4}, {"smiles": "Nc1nc2c(F)cccc2c2nc(C(=O)N3CCCC4(CCNC4)C3)cn12", "note": "(stereo not drawn) [Ex-266, (5-amino-7-fluoroimidazo[1,2-c]quinazolin-2-yl)(2,7-diazaspiro[4.5]decan-7-yl)methanone]", "Ki": 0.22}, {"smiles": "COc1cccc2c1nc(N)n1cc(CN3CCc4ccccc4C3)nc21", "note": "[Ex-121, 2-((3,4-dihydroisoquinolin-2(1H)-yl)methyl)-7-methoxyimidazo[1,2-c]quinazolin-5-amine]", "Ki": 0.0037}, {"smiles": "COc1cccc2c1nc(N)n1cc(C(=O)N3CCCC4(CC4)C3)nc21", "note": "[Ex-174, (5-amino-7-methoxyimidazo[1,2-c]quinazolin-2-yl)(5-azaspiro[2.5]octan-5-yl)methanone]", "Ki": 0.0023}, {"smiles": "COc1cccc2c1nc(N)n1cc(C(=O)N3CCCC(C)CC3)nc21", "note": "(stereo not drawn) [Ex-176, (5-amino-7-methoxyimidazo[1,2-c]quinazolin-2-yl)(4-methylazepan-1-yl)methanone]", "Ki": 0.01}, {"smiles": "Cn1cc(-c2ccc(F)c3nc(N)n4cc(Cc5ccccc5)nc4c23)ccc1=O", "note": "[Ex-61, 5-(5-amino-2-benzyl-7-fluoroimidazo[1,2-c]quinazolin-10-yl)-1-methylpyridin-2(1H)-one]", "Ki": 0.027}, {"smiles": "COc1cccc2c1nc(N)n1cc(Cc3ccccc3N3CCCC3)nc21", "note": "[Ex-29, 7-methoxy-2-(2-(pyrrolidin-1-yl)benzyl)imidazo[1,2-c]quinazolin-5-amine]", "Ki": 0.0016}, {"smiles": "COc1cccc2c1nc(N)n1cc(C(=O)N3CCCC4(CCCO4)C3)nc21", "note": "(stereo not drawn) [Ex-205, (5-amino-7-methoxyimidazo[1,2-c]quinazolin-2-yl)(1-oxa-7-azaspiro[4.5]decan-7-yl)methanone]", "Ki": 0.013}, {"smiles": "Nc1nc2c(F)cccc2c2nc(CC3CCN(C(=O)OCc4ccccc4)CC3)cn12", "note": "[Ex-316, benzyl 4-((5-amino-7-fluoroimidazo[1,2-c]quinazolin-2-yl)-methyl)piperidine-1-carboxylate]", "Ki": 0.03}, {"smiles": "Nc1nc2c(F)cccc2c2nc(Cc3cccc(CN4CCOCC4)c3)cn12", "note": "[Ex-33, 7-fluoro-2-(3-(morpholinomethyl)benzyl)imidazo[1,2-c]quinazolin-5-amine]", "Ki": 0.003}, {"smiles": "CC(c1ccc(-c2cccc(Cc3cn4c(N)nc5c(F)cccc5c4n3)c2)cc1)N1CCOCC1", "note": "(stereo not drawn) [Ex-75, 7-fluoro-2-((4′-(l-morpholinoethyl)-[1,1′-biphenyl]-3-yl)methyl)imidazo[1,2-c]quinazolin-5-amine]", "Ki": 0.006}]}]}
